Each structure is given as a SMILES string. pIC50: −log10 of the molar value.

In general, pIC50 refers to −log10 of the IC50, conventionally taken in molar units. A low value points to a large IC50.

Test [1] addresses T1, human TG6 (T021; Zedira) (Homo sapiens, UniProt O95932).
T1 sequence (O95932 1-706): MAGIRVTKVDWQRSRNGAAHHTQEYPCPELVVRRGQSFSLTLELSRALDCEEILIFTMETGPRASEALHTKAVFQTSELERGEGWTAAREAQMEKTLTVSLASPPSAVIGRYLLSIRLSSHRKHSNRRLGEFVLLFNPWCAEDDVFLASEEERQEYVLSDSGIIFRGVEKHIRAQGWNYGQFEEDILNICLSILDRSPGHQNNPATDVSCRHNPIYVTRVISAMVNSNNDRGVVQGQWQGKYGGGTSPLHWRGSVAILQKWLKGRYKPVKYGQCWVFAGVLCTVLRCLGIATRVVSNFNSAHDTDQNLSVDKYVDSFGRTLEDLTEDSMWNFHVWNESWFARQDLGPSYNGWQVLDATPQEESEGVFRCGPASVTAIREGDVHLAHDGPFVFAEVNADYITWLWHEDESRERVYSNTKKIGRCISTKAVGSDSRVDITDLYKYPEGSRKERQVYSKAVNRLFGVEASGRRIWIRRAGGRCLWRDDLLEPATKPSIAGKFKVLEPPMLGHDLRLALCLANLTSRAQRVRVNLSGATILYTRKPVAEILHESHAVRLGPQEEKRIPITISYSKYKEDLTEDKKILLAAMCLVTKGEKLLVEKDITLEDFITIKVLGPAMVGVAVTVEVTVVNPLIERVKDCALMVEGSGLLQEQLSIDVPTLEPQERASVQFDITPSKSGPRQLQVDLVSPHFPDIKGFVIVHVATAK
Nature of the test: fluorescence isopeptidase. It is filed as biochemical. As to conditions: 37°C, Ca2+-activated; allosteric.

The target of test [2] is T1, human TG6 (T021; Zedira). In words: fluorescence isopeptidase. In kind it is biochemical.

In the case of `Nc1nc2c(ncn2[C@@H]2O[C@H](COP(=O)(O)OP(=O)(O)O)[C@@H](O)[C@H]2O)c(=O)[nH]1` [GDP], at human TG6 (T021; Zedira) [1], the half-maximal inhibition entry is “Activity of TG6 is inhibited to a similar degree by GTP and GDP”. On the same count and under the same terms, in the case of `Nc1nc2c(ncn2[C@@H]2O[C@H](COP(=O)(O)O)[C@@H](O)[C@H]2O)c(=O)[nH]1` [GMP] it was “but the affinity for GMP is low”. Consider `Nc1ncnc2c1ncn2[C@@H]1O[C@H](COP(=O)(O)OP(=O)(O)OP(=O)(O)O)[C@@H](O)[C@H]1O` [ATP], for which the pIC50 at human TG6 (T021; Zedira) [2] is approximately 3.00. For the molecule `Nc1nc2c(ncn2[C@@H]2O[C@H](COP(=O)(O)OP(=O)(O)OP(=O)(O)O)[C@@H](O)[C@H]2O)c(=O)[nH]1` [GTP], the negative-log IC50 (pIC50) against human TG6 (T021; Zedira) [2] is 3.70. For `Nc1nc2c(ncn2[C@@H]2O[C@H](COP(=O)(O)OP(=O)(O)OP(O)(O)=S)[C@@H](O)[C@H]2O)c(=O)[nH]1` [GTPγS], the half-maximal inhibition result at human TG6 (T021; Zedira) [1] is “The non-hydrolyzable GTP analogue GTPγS is a more effective inhibitor than GTP”.

The record behind these values is paper PMC3535377 (Amino Acids, 2011).
